# Assays:
# blackgrass = assay: Test D preemergence; format: in vivo, Alopecurus myosuroides; conditions: scale 0 to 100
# Text: (§1) Seeds of plant species selected from bluegrass (annual bluegrass, Poa annua), blackgrass (Alopecurus myosuroides), canarygrass (littleseed canarygrass, Phalaris minor), chickweed (common chickweed, Stellaria media), galium (catchweed bedstraw, Galium aparine), bromegrass, downy (downy bromegrass, Bromus tectorum), field poppy (Papaver rhoeas), field violet (Viola arvensis), foxtail, green (green foxtail, Setaria viridis), deadnettle (henbit deadnettle, Lamium amplexicaule), ryegrass, Italian (Italian ryegrass, Lolium multiflorum), kochia (Kochia scoparia), lambsquarters (Chenopodium album), oilseed rape (Brassica napus), pigweed (redroot pigweed, Amaranthus retroflexus), chamomile (scentless chamomile, Matricaria inodora), speedwell (bird's-eye speedwell, Veronica persica), barley, spring (spring barley, Hordeum vulgare), wheat, spring (spring wheat, Triticum aestivum), buckwheat, wild (wild buckwheat, Polygonum convolvulus), mustard, wild (wild mustard, Sinapis arvensis), oat, wild (wild oat, Avena fatua), radish, wild (wild radish, Raphanus raphanistrum), windgrass (Apera spica-venti), Russian thistle (Salsola kali), barley, winter (winter barley, Hordeum vulgare), and wheat, winter (winter wheat, Triticum aestivum) were planted into a silt loam soil and treated preemergence with test chemicals formulated in a non-phytotoxic solvent mixture which included a surfactant.
# (§2) At the same time, these species were planted in pots containing Redi-Earth® planting medium (Scotts Company, 14111 Scottslawn Road, Marysville, Ohio 43041) comprising spaghnum peat moss, vermiculite, wetting agent and starter nutrients and treated with postemergence applications of the test chemicals formulated in the same manner. Plants ranged in height from 2 to 18 cm (1- to 4-leaf stage). Treated plants and controls were maintained in a controlled growth environment for 14 to 21 days after which time all species were compared to controls and visually evaluated. Plant response ratings, summarized in Table D, are based on a scale of 0 to 100 where 0 is no effect and 100 is complete control. A dash (-) response means no test result.
# foxtail, green = assay: Test D preemergence; format: in vivo, Setaria viridis; conditions: scale 0 to 100
# Method in brief: (§3)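 Formulation was a non-phytotoxic solvent mixture plus surfactant, applied either to soil at planting (silt loam, preemergence) or to foliage of 2–18 cm plants (postemergence). Visual evaluation versus controls followed at 14–21 days, scored 0–100.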
# wheat, spring = assay: Test D preemergence; format: in vivo, Triticum aestivum; conditions: scale 0 to 100
# Text: as §1, §2
# wheat, winter = assay: Test D preemergence; format: in vivo, Triticum aestivum; conditions: scale 0 to 100
# Text: as §1, §2
# bluegrass = assay: Test D postemergence; format: in vivo, Poa annua; conditions: scale 0 to 100
# Method in brief: as §3
# kochia = assay: Test D postemergence; format: in vivo, Kochia scoparia; conditions: scale 0 to 100
# Method in brief: as §3
# oilseed rape = assay: Test D postemergence; format: in vivo, Brassica napus; conditions: scale 0 to 100
# Text: as §1, §2
# speedwell = assay: Test D postemergence; format: in vivo, Veronica persica; conditions: scale 0 to 100
# Method in brief: as §3
# barley, spring = assay: Test D postemergence; format: in vivo, Hordeum vulgare; conditions: scale 0 to 100
# Text: as §1, §2
# barley, winter = assay: Test D postemergence; format: in vivo, Hordeum vulgare; conditions: scale 0 to 100
# Text: as §1, §2
# pigweed, palmer = assay: Test F preemergence; format: in vivo, Amaranthus palmeri
# Text: (§4) Seeds of plant species selected from corn (Zea mays), soybean (Glycine max), velvetleaf (Abutilon theophrasti), lambsquarters (Chenopodium album), wild poinsettia (Euphorbia heterophylla), pigweed, palmer (palmer pigweed, Amaranthus palmeri), common waterhemp (Amaranthus rudis), surinam grass (Brachiaria decumbens), large crabgrass (Digitaria sanguinalis), crabgrass, Brazil (Brazilian crabgrass, Digitaria horizontalis), fall panicum (Panicum dichotomiflorum), giant foxtail (Setaria faberii), green foxtail (Setaria viridis), goosegrass (Eleusine indica), johnsongrass (Sorghum halepense), common ragweed (Ambrosia elation), barnyardgrass (Echinochloa crus-galli), southern sandbur (Cenchrus echinatus), arrowleaf sida (Sida rhombifolia), Italian ryegrass (Lolium multiflorum), dayflower, VA (Virginia (VA) dayflower, Commelina virginica), field bindweed (Convolvulus arvensis), cocklebur (common cocklebur, Xanthium strumarium), morningglory (Ipomoea coccinea), nightshade (eastern black nightshade, Solanum ptycanthum), kochia (Kochia scoparia), yellow nutsedge (Cyperus esculentus), and hairy beggarticks (Bidens pilosa), were planted into a silt loam soil and treated preemergence with test chemicals formulated in a non-phytotoxic solvent mixture which included a surfactant.
# (§5) At the same time, plants from these crop and weed species and also horseweed (Canada horseweed, Conyza canadensis), smartweed (ladysthumb smartweed, Polygonum persicaria), waterhemp_RES1, (ALS & Triazine resistant common waterhemp, Amaranthus rudis), and waterhemp_RES2, (ALS & HPPD resistant common waterhemp, Amaranthus rudis) were treated with postemergence applications of test chemicals formulated in the same manner. Plants ranged in height from 2 to 18 cm for postemergence treatments (1- to 4-leaf stage). Treated plants and controls were maintained in a greenhouse for 14 to 21 days, after which time all species were compared to controls and visually evaluated. Plant response ratings, summarized in Table F, are based on a scale of 0 to 100 where 0 is no effect and 100 is complete control. A dash (-) response means no test result.
# goosegrass = assay: Test F preemergence; format: in vivo, Eleusine indica
# Text: as §4, §5
# morningglory = assay: Test F preemergence; format: in vivo, Ipomoea coccinea
# Text: as §4, §5
# nightshade = assay: Test F preemergence; format: in vivo, Solanum ptycanthum
# Method in brief: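 Pre- and postemergence applications used the same formulation, a non-phytotoxic solvent mixture including surfactant. Soil-applied treatment followed sowing into silt loam, whereas foliar treatment hit plants at the 1- to 4-leaf stage. Scores (0 = no effect, 100 = complete control) were assigned visually after 14–21 days.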
# [1] = Preemergence, 31 g ai/ha, scale 0 to 100
# [2] = Preemergence, 62 g ai/ha, scale 0 to 100
# [3] = Preemergence, 125 g ai/ha, scale 0 to 100
# [4] = preemergence, 8 g ai/ha, scale 0 to 100, 100 is complete control
# [5] = preemergence, 16 g ai/ha, scale 0 to 100, 100 is complete control
smiles,measurement,setting,value
"CCc1cc(C(=O)NCC(F)(F)F)nn1Cc1ccnc(C(F)(F)F)c1 [Compound 78, 5-ethyl-N-(2,2,2-trifluoroethyl)-1-[[(2-trifluoromethyl)-4-pyridinyl]methyl]-1H-pyrazole-3-carboxamide]","Plant response rating, Blackgrass",blackgrass; 31 g ai/ha,35
same,"Plant response rating, Blackgrass",blackgrass; 62 g ai/ha,70
same,"Plant response rating, Blackgrass",blackgrass; 125 g ai/ha,80
same,"Plant response rating, Blackgrass",blackgrass; 250 g ai/ha,100
same,"Plant response rating, Foxtail, Green","foxtail, green; 31 g ai/ha",50
same,"Plant response rating, Foxtail, Green","foxtail, green; 62 g ai/ha",100
same,"Plant response rating, Foxtail, Green","foxtail, green; 125 g ai/ha",100
same,"Plant response rating, Foxtail, Green","foxtail, green; 250 g ai/ha",100
same,"Plant response rating, Wheat, Spring","wheat, spring; 31 g ai/ha",5
same,"Plant response rating, Wheat, Spring","wheat, spring; 62 g ai/ha",55
same,"Plant response rating, Wheat, Spring","wheat, spring; 125 g ai/ha",80
same,"Plant response rating, Wheat, Spring","wheat, spring; 250 g ai/ha",100
same,"Plant response rating, Wheat, Winter","wheat, winter; 31 g ai/ha",15
same,"Plant response rating, Wheat, Winter","wheat, winter; 62 g ai/ha",50
same,"Plant response rating, Wheat, Winter","wheat, winter; 125 g ai/ha",80
same,"Plant response rating, Wheat, Winter","wheat, winter; 250 g ai/ha",95
same,Bluegrass plant response rating,"bluegrass; Postemergence, 31 g ai/ha",10
same,Bluegrass plant response rating,"bluegrass; Postemergence, 125 g ai/ha",15
same,Bluegrass plant response rating,"bluegrass; Postemergence, 250 g ai/ha",30
same,Bluegrass plant response rating,"bluegrass; postemergence, 62 g ai/ha",10
same,Kochia plant response rating,"kochia; Postemergence, 31 g ai/ha",75
same,Kochia plant response rating,"kochia; Postemergence, 125 g ai/ha",80
same,Kochia plant response rating,"kochia; Postemergence, 250 g ai/ha",75
same,Kochia plant response rating,"kochia; postemergence, 62 g ai/ha",80
same,Oilseed Rape plant response rating,"oilseed rape; Postemergence, 31 g ai/ha",35
same,Oilseed Rape plant response rating,"oilseed rape; Postemergence, 125 g ai/ha",60
same,Oilseed Rape plant response rating,"oilseed rape; Postemergence, 250 g ai/ha",80
same,Oilseed Rape plant response rating,"oilseed rape; postemergence, 62 g ai/ha",50
same,Speedwell plant response rating,"speedwell; Postemergence, 31 g ai/ha",45
same,Speedwell plant response rating,"speedwell; Postemergence, 125 g ai/ha",80
same,Speedwell plant response rating,"speedwell; Postemergence, 250 g ai/ha",90
same,Speedwell plant response rating,"speedwell; postemergence, 62 g ai/ha",60
same,"Barley, Spring plant response rating","barley, spring; Postemergence, 31 g ai/ha",0
same,"Barley, Spring plant response rating","barley, spring; Postemergence, 125 g ai/ha",10
same,"Barley, Spring plant response rating","barley, spring; Postemergence, 250 g ai/ha",30
same,"Barley, Spring plant response rating","barley, spring; postemergence, 62 g ai/ha",0
same,"Barley, Winter plant response rating","barley, winter; Postemergence, 31 g ai/ha",5
same,"Barley, Winter plant response rating","barley, winter; Postemergence, 125 g ai/ha",15
same,"Barley, Winter plant response rating","barley, winter; Postemergence, 250 g ai/ha",25
same,"Barley, Winter plant response rating","barley, winter; postemergence, 62 g ai/ha",10
same,"Plant response rating, Pigweed, Palmer","pigweed, palmer; [1]",35
same,"Plant response rating, Pigweed, Palmer","pigweed, palmer; [2]",100
same,"Plant response rating, Pigweed, Palmer","pigweed, palmer; [3]",100
same,"Plant response rating, Pigweed, Palmer","pigweed, palmer; [4]",20
same,"Plant response rating, Pigweed, Palmer","pigweed, palmer; [5]",40
same,"Plant response rating, Goosegrass",goosegrass; [1],90
same,"Plant response rating, Goosegrass",goosegrass; [2],90
same,"Plant response rating, Goosegrass",goosegrass; [3],100
same,"Plant response rating, Goosegrass",goosegrass; [4],5
same,"Plant response rating, Goosegrass",goosegrass; [5],40
same,"Plant response rating, Morningglory",morningglory; [1],100
same,"Plant response rating, Morningglory",morningglory; [2],90
same,"Plant response rating, Morningglory",morningglory; [3],100
same,"Plant response rating, Morningglory",morningglory; [4],0
same,"Plant response rating, Morningglory",morningglory; [5],40
same,"Plant response rating, Nightshade",nightshade; [1],95
same,"Plant response rating, Nightshade",nightshade; [2],98
same,"Plant response rating, Nightshade",nightshade; [3],98
same,"Plant response rating, Nightshade",nightshade; [4],0
same,"Plant response rating, Nightshade",nightshade; [5],60

# From US20150105252A1, “SUBSTITUTED PYRAZOLES AS HERBICIDES” (E I DU PONT DE NEMOURS AND COMPANY, priority 2013, published 2015)
